The record followed here is patent US20240246918A1, “COMPOUNDS AND COMPOSITIONS AS EIF4E INHIBITORS AND THE USES THEREOF” (Ribometrix, Inc., priority 2022, published 2024).

Structures are written as SMILES.

One assay relates to COLO 205 colorectal tumor cells. Nature of the assay: Tumor cell viability inhibition assay (CellTiter-Glo 2.0, 72 hours). It counts as cell-based. Particulars: COLO 205 cell viability. The method, boiled down:
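COLO 205 cells (1500/well, RPMI-1640 + 10% FBS) exposed for 72 h to an 11-point, 4-fold dilution series; cellular ATP read by CellTiter-Glo 2.0 luminescence. Data normalized to DMSO and maximum-inhibition controls; IC50 from 4-parameter curve fit.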
As a reminder, the IC50 is the point on the concentration scale where inhibition reaches its midpoint. As to `COc1cc(CN(C)C2CCc3nc(C)n(CCOc4ccc(Cl)cc4-c4cc(C)nc5c(C(=O)O)csc45)c(=O)c3C2)ccn1` (single isomer, unassigned) [Compound 218], the IC50 was in the range of 5 to 20 µM.

With `Cc1nc2c(c(=O)n1CC#Cc1ccc(Cl)cc1-c1ccnc3c(C(=O)NS(C)(=O)=O)csc13)CC(N1CC(F)(F)C1)CC2` (single isomer, unassigned) [Compound 332], the IC50 was in the range of 5 to 20 µM.

Staying with this assay, now noted: Homo sapiens, COLO 205, 72 h, COLO 205 cell viability.
In the case of `Cc1cc(-c2cc(Cl)ccc2OCCn2c(C)nc3c(c2=O)CC(N(C)Cc2cncnc2)CC3)c2scc(C(=O)O)c2n1` (stereo not drawn) [Compound 187], the IC50 was < 5 µM.

On to `Cc1cc(-c2cc(Cl)ccc2OCCn2c(C)nc3c(c2=O)CC(N(C)Cc2cc[nH]n2)CC3)c2scc(C(=O)O)c2n1` (stereo not drawn) [Compound 186], for which the IC50 was > 20 µM.

With `Cc1cc(-c2cc(Cl)ccc2OCCn2c(C)nc3c(c2=O)C[C@@H](N(C)[C@H]2CC[C@@](C)(O)CC2)CC3)c2scc(C(=O)NS(C)(=O)=O)c2n1` (single isomer, unassigned) [Compound 215], the IC50 was > 20 µM.

As to `Cc1cc(-c2cc(Cl)ccc2OCCn2c(C)nc3c(c2=O)CC(N2CCC4(CC2)CC(O)(C(F)(F)F)C4)CC3)c2scc(C(=O)O)c2n1` (stereo not drawn) [Compound 212], the IC50 lay in the range of 5 to 20 µM.

With `Cc1cc(-c2cc(Cl)ccc2OCCn2c(C)nc3c(c2=O)CC(N(C)CC2CC(F)(F)C2)CC3)c2scc(C(=O)O)c2n1` (single isomer, unassigned) [Compound 258], the IC50 was < 5 µM.

With `Cc1cc(-c2cc(Cl)ccc2OCCn2c(C)nc3c(c2=O)C[C@H](N2C[C@@H]4CCC(F)(F)[C@@H]4C2)CC3)c2scc(C(=O)O)c2n1` (single isomer, unassigned) [Compound 167], the IC50 is < 5 µM.

On to `Cc1cc2c(cn1)CCN(C1CCc3nc(C)n(CCOc4ccc(Cl)cc4-c4cc(C)nc5c(C(=O)O)csc45)c(=O)c3C1)C2` (stereo not drawn) [Compound 177], for which the IC50 is < 5 µM.

Regarding `Cc1cc(-c2cc(Cl)ccc2OCCn2c(C)nc3c(c2=O)CC(N2CC4C(C2)C4(F)F)CC3)c2scc(C(=O)O)c2n1` (stereo not drawn) [Compound 172], the IC50 was < 5 µM.

Take `COc1cc(CNC2CCc3nc(C)n(CCOc4ccc(Cl)cc4-c4cc(C)nc5c(C(=O)O)csc45)c(=O)c3C2)ccn1` (stereo not drawn) [Compound 154]: the IC50 was < 5 µM.

Consider `Cc1cc(-c2cc(Cl)ccc2OCCn2c(C)nc3c(c2=O)CC(N2CCC(OCCO)CC2)CC3)c2scc(C(=O)O)c2n1` (stereo not drawn) [Compound 208], for which the IC50 is > 20 µM.

For the molecule `Cc1cc(-c2cc(Cl)ccc2OCCn2c(C)nc3c(c2=O)C[C@H](N(C)C[C@H]2C[C@](C)(O)C2)CC3)c2scc(C(=O)O)c2n1` (relative stereo) [Compound 210], the IC50 was > 20 µM.

In the case of `Cc1cc(-c2cc(Cl)ccc2OCCn2c(C)nc3c(c2=O)CC(N(C)Cc2ncc[nH]2)CC3)c2scc(C(=O)O)c2n1` (stereo not drawn) [Compound 190], the IC50 is > 20 µM.

For `Cc1cc(-c2cc(Cl)ccc2OCCn2c(C)nc3c(c2=O)C[C@@H](N(C)C[C@H]2C[C@@H](C(F)(F)F)C2)CC3)c2scc(C(=O)O)c2n1` (stereo in doubt) [Compound 189], the IC50 was < 5 µM.

Another assay has as its system cyclin D1 protein levels in COLO 205 cells. The assay can be described thus: Cyclin D1 cellular inhibition assay (HTRF, 6 hours). The assay is classed as cell-based. The note with it: 6 hours of compound treatment, Cyclin D1 protein levels by HTRF, read-out: COLO 205 6 h Cyclin D1 TR-FRET IC50. As to the method: The effect of compound treatment on cyclin D1 protein levels in COLO 205 cells was assessed, as follows. Test compound plates were prepared with a Tecan D300e Digital Dispenser as 11-point concentration-response curves with a final DMSO concentration of 1%. COLO 205 (ATCC, CCL-222) colorectal tumor cells were seeded to assay-ready plates in RPMI-1640 medium supplemented with 10% FBS at 20,000 cells in a volume of 6 microliters per well. After 6 hours of compound treatment, cells were lysed and Cyclin D1 protein levels were assessed by an HTRF assay (PerkinElmer #64CYCD1ITPEG), according to the manufacturer's protocol. Time-resolved fluorescence was measured using a Clariostar Plus microplate reader (BMG Labtech) or equivalent. After normalization to the average of DMSO control and maximum inhibition control wells, concentration-response data were plotted and standard 4-parameter curve fitting (GraphPad Prism v9.4.1) was utilized to determine IC50 values.
As to `COc1cc(CN(C)C2CCc3nc(C)n(CCOc4ccc(Cl)cc4-c4cc(C)nc5c(C(=O)O)csc45)c(=O)c3C2)ccn1` (single isomer, unassigned) [Compound 218], the IC50 was < 5 µM.

The assay is the same for the next values; noted with them: Homo sapiens, COLO 205, 6 h, 6 hours of compound treatment, Cyclin D1 protein levels by HTRF, read-out: COLO 205 6 h Cyclin D1 TR-FRET IC50.
On to `Cc1cc(-c2cc(Cl)ccc2OCCn2c(C)nc3c(c2=O)CC(N(C)Cc2cncnc2)CC3)c2scc(C(=O)O)c2n1` (stereo not drawn) [Compound 187], for which the IC50 is 5 to 20 µM.

For the molecule `Cc1cc(-c2cc(Cl)ccc2OCCn2c(C)nc3c(c2=O)CC(N(C)Cc2cc[nH]n2)CC3)c2scc(C(=O)O)c2n1` (stereo not drawn) [Compound 186], the IC50 was > 20 µM.

For the molecule `Cc1cc(-c2cc(Cl)ccc2OCCn2c(C)nc3c(c2=O)C[C@@H](N(C)[C@H]2CC[C@@](C)(O)CC2)CC3)c2scc(C(=O)NS(C)(=O)=O)c2n1` (single isomer, unassigned) [Compound 215], the IC50 is > 20 µM.

With `Cc1cc(-c2cc(Cl)ccc2OCCn2c(C)nc3c(c2=O)CC(N2CCC4(CC2)CC(O)(C(F)(F)F)C4)CC3)c2scc(C(=O)O)c2n1` (stereo not drawn) [Compound 212], the IC50 is 5 to 20 µM.

For `Cc1cc(-c2cc(Cl)ccc2OCCn2c(C)nc3c(c2=O)CC(N(C)CC2CC(F)(F)C2)CC3)c2scc(C(=O)O)c2n1` (single isomer, unassigned) [Compound 258], the IC50 is < 5 µM.

In the case of `Cc1cc(-c2cc(Cl)ccc2OCCn2c(C)nc3c(c2=O)C[C@H](N2C[C@@H]4CCC(F)(F)[C@@H]4C2)CC3)c2scc(C(=O)O)c2n1` (single isomer, unassigned) [Compound 167], the half-inhibitory concentration (IC50) was < 5 µM.

As to `Cc1cc2c(cn1)CCN(C1CCc3nc(C)n(CCOc4ccc(Cl)cc4-c4cc(C)nc5c(C(=O)O)csc45)c(=O)c3C1)C2` (stereo not drawn) [Compound 177], the IC50 is < 5 µM.

Turning to `Cc1cc(-c2cc(Cl)ccc2OCCn2c(C)nc3c(c2=O)CC(N2CC4C(C2)C4(F)F)CC3)c2scc(C(=O)O)c2n1` (stereo not drawn) [Compound 172], the IC50 is < 5 µM.

For `COc1cc(CNC2CCc3nc(C)n(CCOc4ccc(Cl)cc4-c4cc(C)nc5c(C(=O)O)csc45)c(=O)c3C2)ccn1` (stereo not drawn) [Compound 154], the IC50 was < 5 µM.

Take `Cc1cc(-c2cc(Cl)ccc2OCCn2c(C)nc3c(c2=O)CC(N2CCC(OCCO)CC2)CC3)c2scc(C(=O)O)c2n1` (stereo not drawn) [Compound 208]: the IC50 is > 20 µM.

On to `Cc1cc(-c2cc(Cl)ccc2OCCn2c(C)nc3c(c2=O)C[C@H](N(C)C[C@H]2C[C@](C)(O)C2)CC3)c2scc(C(=O)O)c2n1` (relative stereo) [Compound 210], for which the IC50 is > 20 µM.

Regarding `Cc1cc(-c2cc(Cl)ccc2OCCn2c(C)nc3c(c2=O)CC(N(C)Cc2ncc[nH]2)CC3)c2scc(C(=O)O)c2n1` (stereo not drawn) [Compound 190], the IC50 is > 20 µM.

In the case of `Cc1cc(-c2cc(Cl)ccc2OCCn2c(C)nc3c(c2=O)C[C@@H](N(C)C[C@H]2C[C@@H](C(F)(F)F)C2)CC3)c2scc(C(=O)O)c2n1` (stereo in doubt) [Compound 189], the half-inhibitory concentration (IC50) was < 5 µM.

For a further assay, the target named is T1, human eIF4E protein (Homo sapiens, UniProt P06730).
T1 construct: purchased Novus NBP-45314
T1 sequence (P06730 whole entry): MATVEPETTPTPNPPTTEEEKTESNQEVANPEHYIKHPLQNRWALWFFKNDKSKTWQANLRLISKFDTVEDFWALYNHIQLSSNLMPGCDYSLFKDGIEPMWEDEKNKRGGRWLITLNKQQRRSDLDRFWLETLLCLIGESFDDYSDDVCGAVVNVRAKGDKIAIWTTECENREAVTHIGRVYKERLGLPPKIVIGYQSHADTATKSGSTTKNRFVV
Nature of the assay: Biochemical competitive binding assay (TR-FRET competition, EDA-m7GDP-ATTO-647N probe). The note with it: read-out: hEIF4E TR-FRET IC50. A digest of the protocol: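 His-tagged human eIF4E (4 nM) was preincubated with Eu-anti-His antibody (2.5 nM) and added to compound (11-point, 4-fold dilutions) for 15 min. Then 5 nM EDA-m7GDP-ATTO-647N was added for 15 min, in HEPES pH 7.5, 100 mM KCl. The 665/620 TR-FRET ratio was normalized to controls, and IC50 was taken from 4-parameter fits.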
(In general: In TR-FRET formats the signal depends on donor and acceptor labels being close together.)
With `Cc1cc(-c2cc(Cl)ccc2OCCn2c(C)nc3c(c2=O)CC(N(C)Cc2cncnc2)CC3)c2scc(C(=O)O)c2n1` (stereo not drawn) [Compound 187], the IC50 is < 0.1 µM.

With `Cc1cc(-c2cc(Cl)ccc2OCCn2c(C)nc3c(c2=O)CC(N(C)Cc2cc[nH]n2)CC3)c2scc(C(=O)O)c2n1` (stereo not drawn) [Compound 186], the half-maximal inhibitory concentration (IC50) is < 0.1 µM.

Take `Cc1cc(-c2cc(Cl)ccc2OCCn2c(C)nc3c(c2=O)C[C@@H](N(C)[C@H]2CC[C@@](C)(O)CC2)CC3)c2scc(C(=O)NS(C)(=O)=O)c2n1` (single isomer, unassigned) [Compound 215]: the IC50 is < 0.1 µM.

For the molecule `Cc1cc(-c2cc(Cl)ccc2OCCn2c(C)nc3c(c2=O)CC(N2CCC4(CC2)CC(O)(C(F)(F)F)C4)CC3)c2scc(C(=O)O)c2n1` (stereo not drawn) [Compound 212], the IC50 was < 0.1 µM.

Regarding `Cc1cc(-c2cc(Cl)ccc2OCCn2c(C)nc3c(c2=O)CC(N(C)CC2CC(F)(F)C2)CC3)c2scc(C(=O)O)c2n1` (single isomer, unassigned) [Compound 258], the IC50 was < 0.1 µM.

Regarding `Cc1cc(-c2cc(Cl)ccc2OCCn2c(C)nc3c(c2=O)C[C@H](N2C[C@@H]4CCC(F)(F)[C@@H]4C2)CC3)c2scc(C(=O)O)c2n1` (single isomer, unassigned) [Compound 167], the IC50 was < 0.1 µM.

Take `Cc1cc2c(cn1)CCN(C1CCc3nc(C)n(CCOc4ccc(Cl)cc4-c4cc(C)nc5c(C(=O)O)csc45)c(=O)c3C1)C2` (stereo not drawn) [Compound 177]: the IC50 is < 0.1 µM.

For `Cc1cc(-c2cc(Cl)ccc2OCCn2c(C)nc3c(c2=O)CC(N2CC4C(C2)C4(F)F)CC3)c2scc(C(=O)O)c2n1` (stereo not drawn) [Compound 172], the IC50 is < 0.1 µM.

Regarding `COc1cc(CNC2CCc3nc(C)n(CCOc4ccc(Cl)cc4-c4cc(C)nc5c(C(=O)O)csc45)c(=O)c3C2)ccn1` (stereo not drawn) [Compound 154], the IC50 is < 0.1 µM.

As to `Cc1cc(-c2cc(Cl)ccc2OCCn2c(C)nc3c(c2=O)CC(N2CCC(OCCO)CC2)CC3)c2scc(C(=O)O)c2n1` (stereo not drawn) [Compound 208], the IC50 is < 0.1 µM.

`Cc1cc(-c2cc(Cl)ccc2OCCn2c(C)nc3c(c2=O)C[C@H](N(C)C[C@H]2C[C@](C)(O)C2)CC3)c2scc(C(=O)O)c2n1` (relative stereo) [Compound 210]: the IC50 is < 0.1 µM.

On to `Cc1cc(-c2cc(Cl)ccc2OCCn2c(C)nc3c(c2=O)CC(N(C)Cc2ncc[nH]2)CC3)c2scc(C(=O)O)c2n1` (stereo not drawn) [Compound 190], for which the IC50 was < 0.1 µM.

Regarding `Cc1cc(-c2cc(Cl)ccc2OCCn2c(C)nc3c(c2=O)C[C@@H](N(C)C[C@H]2C[C@@H](C(F)(F)F)C2)CC3)c2scc(C(=O)O)c2n1` (stereo in doubt) [Compound 189], the IC50 is < 0.1 µM.

For the molecule `COc1cc(CN(C)C2CCc3nc(C)n(CCOc4ccc(Cl)cc4-c4cc(C)nc5c(C(=O)O)csc45)c(=O)c3C2)ccn1` (single isomer, unassigned) [Compound 218], the IC50 was < 0.1 µM.

In the case of `Cc1nc2c(c(=O)n1CC#Cc1ccc(Cl)cc1-c1ccnc3c(C(=O)NS(C)(=O)=O)csc13)CC(N1CC(F)(F)C1)CC2` (single isomer, unassigned) [Compound 332], the IC50 was 0.1 to 0.5 µM.

The subject of the next assay is cap-dependent translation in Flp-In-293 reporter cells. The assay can be described thus: Cellular cap-dependent translation inhibition assay (dual luciferase assay, DLA; Fluc/Rluc ratio, 24 hours). The assay is classed as cell-based. Particulars: dual luciferase assay, Flp-In-293 reporter cells, 24 hours, Fluc/Rluc ratio; read-out: DLA 205 IC50.
As for `Cc1nc2c(c(=O)n1CC#Cc1ccc(Cl)cc1-c1ccnc3c(C(=O)NS(C)(=O)=O)csc13)CC(N1CC(F)(F)C1)CC2` (single isomer, unassigned) [Compound 332], the IC50 is > 5 µM.
